Experimental data from patent publication US5952321A, “Substituted azetidinones as anti-inflammatory and antidegenerative agents” (Merck & Co., Inc., priority 1996, dated 1999).
Read-outs that look alike come from different tables or passages of the source.

Biological target: T1, Human Polymorphonuclear Leukocyte Elastase (Homo sapiens, UniProt P08246)
T1 sequence (P08246 30-267): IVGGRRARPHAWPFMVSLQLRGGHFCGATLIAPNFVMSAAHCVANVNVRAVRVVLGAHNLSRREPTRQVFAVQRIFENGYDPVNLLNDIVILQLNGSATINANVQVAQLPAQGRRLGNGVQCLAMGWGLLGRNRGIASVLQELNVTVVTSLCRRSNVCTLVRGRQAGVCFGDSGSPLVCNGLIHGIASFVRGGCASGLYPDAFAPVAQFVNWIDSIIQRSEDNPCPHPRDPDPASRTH
Test: Inhibition of human polymorphonuclear leukocyte elastase via hydrolysis of Boc-AAPAN or Boc-AAPVN
Type: biochemical
Conditions: second order rate constant for inactivation of the enzyme, read-out: Kobs /[I]
Experimental: Enzyme Assays for the Inhibition of Human Polymorphonuclear Leukocyte Elastase Via Hydrolysis of N-t-Boc-alanyl-alanyl-prolylalanine-p-nitroanilide (Boc-AAPAN) or […] (Boc-AAPVN) Reagent:
0.05M TES (N-tris[hydroxymethyl]methyl-2-amino-ethanesulfonic acid) Buffer, pH 7.5.
0.2 mM Boc-AAPAN or Boc-AAPVN.
To prepare substrate, the solid was first dissolved in 10.0 ml DMSO. Buffer at pH 7.5 was then added to a final volume of 100 ml.
Crude extract of human polymorphonuclear leukocytes (PMN) containing elastase activity.
Inhibitors (azetidinones) to be tested dissolved in DMSO just before use.
To 1.0 ml of 0.2 mM Boc-AAPAN in a cuvette, 0.01-0.1 ml of DMSO with or without inhibitor was added. After mixing, a measurement was taken at 410 mμ to detect any spontaneous hydrolysis due to presence of test compound. 0.05 Milliliters of PMN extract was then added and the ΔOD/min at 410 mμ was measured and recorded. Beckman model 35 spectrophotometer was used.
Results in Tables I to III were reported as ID50, effective dosage in micrograms per milliliter (μg/ml) for 50% inhibition of the enzyme activity 2 minutes after zero time.
Results were also expressed as Ki, the micromolar concentration of the inhibitor (μM) giving 50% of the control enzyme activity; or as ^k obs/I which is the second order rate constant in per mole per second for inactivation of the enzyme.
The elastase activity in the crude PMN extract may vary from one preparation to another. A control of each new batch is run, and the volume added in the assay procedure is adjusted according to activity.

Row | SMILES | kinact/KI (pH 7.5, Table I) | other results
1 | CCC[C@@H](NC(=O)N1C(=O)C(CC)(CC)[C@@H]1Oc1ccc(CCCN(CC)CC)cc1)c1ccc(C)cc1 [R4=Et; R5=Et; n=3] |  | kinact/KI (pH 7.5, Table II): 540000 M⁻¹ s⁻¹
2 | CCC[C@@H](NC(=O)N1C(=O)C(CC)(CC)[C@@H]1Oc1ccc(CN(C)CCOCCOC)cc1)c1ccc(C)cc1 [R4=Me; R5=CH2 CH2 OCH2 CH2 OMe; R6=H] | 1.9e+06 M⁻¹ s⁻¹ | 
3 | CCC[C@@H](NC(=O)N1C(=O)C(CC)(CC)[C@@H]1Oc1ccc(CNC(=O)NCc2ccccc2)cc1)c1ccc(C)cc1 [R4=H; R5=CONH Bn; R6=H, (4S)-3,3-Diethyl-1-[(R)-α-(n-propyl)-4-(methyl)benzylaminocarbonyl]-4-[(4-((N-benzyl)aminocarbonyl)aminomethyl)phenoxy]azetidin-2-one] | 1.6e+06 M⁻¹ s⁻¹ | 
4 | CCC[C@@H](NC(=O)N1C(=O)C(CC)(CC)[C@@H]1Oc1ccc(CCN(C)Cc2ccccc2)cc1)c1ccc(C)cc1 [R4=Me; R5=Bn; n=2, (4S)-3,3-Diethyl-1-[(R)-α-n-propyl-(4-methyl)benzylaminocarbonyl]-4-[(4-(2-benzylmethylamino)ethyl)phenoxy]azetidin-2-one] |  | kinact/KI (pH 7.5, Table II): 1.32e+06 M⁻¹ s⁻¹
5 | CCC[C@@H](NC(=O)N1C(=O)C(CC)(CC)[C@@H]1Oc1ccc(CN(C)C(C)COC)c(OC)c1)c1ccc(C)cc1 (stereo partly shown) |  | kinact/KI (pH 7.5, Table III): 1.65e+06 M⁻¹ s⁻¹
6 | CCC[C@@H](NC(=O)N1C(=O)C(CC)(CC)[C@@H]1Oc1ccc(C(C)N(C)CCO)cc1)c1ccc(C)cc1 (stereo partly shown) [R4=Me; R5=CH2 CH2 OH; R6=Me] | 770000 M⁻¹ s⁻¹ | 
7 | CCC[C@@H](NC(=O)N1C(=O)C(CC)(CC)[C@@H]1Oc1ccc(CN(CC)CCOC)cc1)c1ccc(OCC)cc1 |  | kinact/KI (pH 7.5, Table III): 1.12e+06 M⁻¹ s⁻¹
8 | CCC[C@@H](NC(=O)N1C(=O)C(CC)(CC)[C@@H]1Oc1ccc(C(COC)N(C)CCC)cc1)c1ccc2c(c1)OCO2 (mixture of isomers) [3,3-Diethyl-1-[(R)-α-(n-propyl)-(3,4-dioxomethylene)benzylaminocarbonyl]-4-(S)-[4-{1-(RS)-(N-(n-propyl)-N-(methyl)amino)-2-methoxyethyl}phenoxy]azetidin-2-one] |  | kinact/KI (pH 7.5, Table III): 1.8e+06 M⁻¹ s⁻¹
9 | CCC[C@@H](NC(=O)N1C(=O)C(CC)(CC)[C@@H]1Oc1ccc(CNC(=O)Cc2ccncc2)cc1)c1ccc(C)cc1 [R4=H; R5=COCH2-4-pyridyl; R6=H, (4S)-3,3-Diethyl-1-[(R)-α-(n-propyl)-4-(methyl)benzylaminocarbonyl]-4-[(4-((4-pyridyl)methylcarbonyl)aminomethyl)phenoxy]azetidin-2-one] | 1.7e+06 M⁻¹ s⁻¹ | 
10 | CCC[C@@H](NC(=O)N1C(=O)C(CC)(CC)[C@@H]1Oc1ccc(CN(C)CCOC(=O)C(C)(C)C)cc1)c1ccc(C)cc1 [R4=Me; R5=CH2 CH2 OCOCMe3; R6=H] | 230000 M⁻¹ s⁻¹ | 
11 | CCC[C@@H](NC(=O)N1C(=O)C(CC)(CC)[C@@H]1Oc1ccc([C@H](C)N(C)CCOC)cc1)c1ccc(C)cc1 [R4=Me; R5=CH2 CH2 OMe; R6=(S)--Me, (4S)-3,3-Diethyl-4-{(S)-4-[1-((2-methoxyethyl)methylamino)ethyl]phenoxy}-1-[(R)-α-n-propyl-(4-methyl)benzylaminocarbonyl]azetidin-2-one] | 515000 M⁻¹ s⁻¹ | 
12 | CCC[C@@H](NC(=O)N1C(=O)C(CC)(CC)[C@@H]1Oc1ccc(CN(C)CC2CCCCO2)cc1)c1ccc(C)cc1 (stereo partly shown) | 900000 M⁻¹ s⁻¹ | 
13 | CCC[C@@H](NC(=O)N1C(=O)C(CC)(CC)[C@@H]1Oc1ccc(CCN(C)C)cc1)c1ccc(C)cc1 [R4=Me; R5=Me; n=2, (4S)-3,3-Diethyl-1-[(R)-α-n-propyl-(4-methyl)benzylaminocarbonyl]-4-[(4-(2-dimethylamino)ethyl)phenoxy]azetidin-2-one] |  | kinact/KI (pH 7.5, Table II): 1.13e+06 M⁻¹ s⁻¹
14 | CCC[C@@H](NC(=O)N1C(=O)C(CC)(CC)[C@@H]1Oc1ccc(CN(CC)CCOC)cc1)c1ccc(C)cc1 [R4=Et; R5=CH2 CH2 OMe; R6=H, (4S)-3,3-Diethyl-1-[(R)-α-n-propyl-(4-methyl)benzyl-aminocarbonyl]-4-[(4-(2-methoxyethyl)ethylamino-methyl)phenoxy]azetidin-2-one] | 565000 M⁻¹ s⁻¹ | 
15 | CCC[C@@H](NC(=O)N1C(=O)C(CC)(CC)[C@@H]1Oc1ccc(CN(CC)C(C)COC)cc1)c1ccc(C)cc1 (stereo partly shown) [R4=Et; R5=CH(Me)CH2 OMe; R6=H] | 670000 M⁻¹ s⁻¹ | 
16 | CCC[C@@H](NC(=O)N1C(=O)C(CC)(CC)[C@@H]1Oc1ccc(CCN2CCOCC2)cc1)c1ccc(C)cc1 [R4+R5=--CH2 CH2 OCH2 CH2 --; n=2, (4S)-3,3-Diethyl-1-[(R)-α-n-propyl-(4-methyl)benzylaminocarbonyl]-4-[(4-(2-(4-morpholino))ethyl)phenoxy]azetidin-2-one] |  | kinact/KI (pH 7.5, Table II): 600000 M⁻¹ s⁻¹
17 | CCC[C@@H](NC(=O)N1C(=O)C(CC)(CC)[C@@H]1Oc1ccc(C(COC)N(C)CC)cc1)c1ccc2c(c1)OCO2 (mixture of isomers) [3,3-Diethyl-1-[(R)-α-(n-propyl)-(3,4-dioxomethylene)benzylaminocarbonyl]-4-(S)-[4-{1-(RS)-(N-ethyl-N-(methyl)amino)-2-methoxyethyl}phenoxy]azetidin-2-one] |  | kinact/KI (pH 7.5, Table III): 1.65e+06 M⁻¹ s⁻¹
18 | CCC[C@@H](NC(=O)N1C(=O)C(CC)(CC)[C@@H]1Oc1ccc(CN(CC)CCOC)c(Cl)c1)c1ccc(C)cc1 |  | kinact/KI (pH 7.5, Table III): 550000 M⁻¹ s⁻¹
19 | CCC[C@@H](NC(=O)N1C(=O)C(CC)(CC)[C@@H]1Oc1ccc(C2CCCN2CCOCC)cc1)c1ccc(C)cc1 (stereo partly shown) [R4=CH2 CH2 OEt; R5+R6=--CH2 CH2 CH2 --] | 1.1e+06 M⁻¹ s⁻¹ | 
20 | CCC[C@@H](NC(=O)N1C(=O)C(CC)(CC)[C@@H]1Oc1ccc(C(COC)N(CC)CC)cc1)c1ccc(C)cc1 (mixture of isomers) [R4=Et; R5=Et; R6=CH2 OMe, 3,3-Diethyl-1-[(R)-α-(n-propyl)-4-(methyl)benzylaminocarbonyl]-4-(S)-[4-{1-(RS)-(N,N-diethylamino)-2-methoxyethyl}phenoxy]azetidin-2-one] | 1.1e+06 M⁻¹ s⁻¹ | 
21 | CCC[C@@H](NC(=O)N1C(=O)C(CC)(CC)[C@@H]1Oc1ccc(CN(C)CCN(C)C(C)=O)cc1)c1ccc(C)cc1 [R4=Me; R5=CH2 CH2 N(Me)Ac; R6=H] | 650000 M⁻¹ s⁻¹ | 
22 | CCC[C@@H](NC(=O)N1C(=O)C(CC)(CC)[C@@H]1Oc1ccc(C(COC)N(C)CC)cc1)c1ccc(C)cc1 (mixture of isomers) [R4=Me; R5=Et; R6=CH2 OMe, 3,3-Diethyl-1-[(R)-α-(n-propyl)-4-(methyl)benzylaminocarbonyl]-4-(S)-[4-{1-(RS)-(N-ethyl-N-(methyl)amino)2-methoxyethyl}-phenoxy]azetidin-2-one] | 1e+06 M⁻¹ s⁻¹ | 

The next lines start with results.

Row | kinact/KI (pH 7.5, Table I) | SMILES | other results
23 | 750000 M⁻¹ s⁻¹ | CCC[C@@H](NC(=O)N1C(=O)C(CC)(CC)[C@@H]1Oc1ccc(CNC(C)=O)cc1)c1ccc(C)cc1 [R4=H; R5=Ac; R6=H, (4S)-3,3-Diethyl-1-[(R)-α-(n-propyl)-4-(methyl)benzylaminocarbonyl]-4-[(4-(N-acetyl)aminomethyl)phenoxy]azetidin-2-one] | 
24 | 820000 M⁻¹ s⁻¹ | CCC[C@@H](NC(=O)N1C(=O)C(CC)(CC)[C@@H]1Oc1ccc(CN2CCOCC2)cc1)c1ccc(C)cc1 [R4+R5=--CH2 CH2 OCH2 CH2 --; R6=H] | 
25 | 1.4e+06 M⁻¹ s⁻¹ | CCC[C@@H](NC(=O)N1C(=O)C(CC)(CC)[C@@H]1Oc1ccc(Cn2ccnc2C)cc1)c1ccc(C)cc1 [R4+R5=--CHCHNCMe--; R6=H] | 
26 | 940000 M⁻¹ s⁻¹ | CCC[C@@H](NC(=O)N1C(=O)C(CC)(CC)[C@@H]1Oc1ccc(CN2CCSC2)cc1)c1ccc(C)cc1 [R4+R5=--CH2 CH2 SCH2 --; R6=H] | 
27 | 765000 M⁻¹ s⁻¹ | CCC[C@@H](NC(=O)N1C(=O)C(CC)(CC)[C@@H]1Oc1ccc(CN2CCC(OC)C2)cc1)c1ccc(C)cc1 (stereo partly shown) [R4+R5=--CH2 CH2 CH(OMe)CH2 --; R6=H] | 
28 | 850000 M⁻¹ s⁻¹ | CCC[C@@H](NC(=O)N1C(=O)C(CC)(CC)[C@@H]1Oc1ccc(CNC(=O)CCN(CC)CC)cc1)c1ccc(C)cc1 [R4=H; R5=COCH2 CH2 N Et2; R6=H] | 
29 | 1.55e+06 M⁻¹ s⁻¹ | CCC[C@@H](NC(=O)N1C(=O)C(CC)(CC)[C@@H]1Oc1ccc(CN2CCC[C@H]2COC)cc1)c1ccc(C)cc1 | 
30 | 1.1e+06 M⁻¹ s⁻¹ | CCC[C@@H](NC(=O)N1C(=O)C(CC)(CC)[C@@H]1Oc1ccc(CNC(=O)NC)cc1)c1ccc(C)cc1 [R4=H; R5=CONHMe; R6=H, (4S)-3,3-Diethyl-1-[(R)-α-(n-propyl)-4-(methyl)benzylaminocarbonyl]-4-[(4-((N-methyl)aminocarbonyl)aminomethyl)phenoxy]azetidin-2-one] | 
31 | 1.4e+06 M⁻¹ s⁻¹ | CCC[C@@H](NC(=O)N1C(=O)C(CC)(CC)[C@@H]1Oc1ccc(CN(C)CCOC(=O)N2CCOCC2)cc1)c1ccc(C)cc1 | 
32 | 2.25e+06 M⁻¹ s⁻¹ | CCC[C@@H](NC(=O)N1C(=O)C(CC)(CC)[C@@H]1Oc1ccc(Cn2ccnc2CC)cc1)c1ccc(C)cc1 [R4+R5=--CHCHNCEt--; R6=H] | 
33 | 730000 M⁻¹ s⁻¹ | CCC[C@@H](NC(=O)N1C(=O)C(CC)(CC)[C@@H]1Oc1ccc(CN2CCN(C(=O)OC)CC2)cc1)c1ccc(C)cc1 | 
34 | 1.2e+06 M⁻¹ s⁻¹ | CCC[C@@H](NC(=O)N1C(=O)C(CC)(CC)[C@@H]1Oc1ccc(CN2CCC(O)C2)cc1)c1ccc(C)cc1 (stereo partly shown) [R4+R5=--CH2 CH2 CH(OH)CH2 --; R6=H] | 
